# Test results from US7803803B2, “Tetrahydrofuro[3,2-B] pyrrol-3-ones as cathepsin K inhibitors” (Amura Therapeutics Limited, priority 2007, dated 2010).
# Assays:
# [1] = Plasma incubations (human plasma stability); format: in vitro ADME; conditions: 37° C. Further: tested at 25 µM.
# Method: Aliquots were removed at 2 and 60 minutes and quenched with an equal volume of cold acetonitrile. After mixing vigorously, the precipitated protein matter was removed by filtration (Multiscreen Solvinert filter plates, Millipore, Bedford, Mass., USA) and the filtrate analysed by reverse phase HPLC with mass spectrometric detection, using single ion monitoring of the [M+H]^+ species. Metabolic turnover was determined by comparison of peak areas from the ion chromatograms of the parent compound at 2 and 60 minutes and expressed as percent remaining at 1 hour.
# human osteoclasts [2] = test: Human osteoclast resorption assay; format: cell-based; conditions: Homo sapiens, Osteoclast, 48 h, 1 □ M, read-out: Cell-based % Inh. @ 1 □ M Human
# Method: Bone resorption was studied using a model where human osteoclast precursor cells were cultured on bovine bone slices for 9 days and allowed to differentiate into bone-resorbing osteoclasts. The formed mature osteoclasts were then allowed to resorb bone. The assay was performed by Pharmatest Services Ltd, Itäinen Pitkakatu 4C, Turku, Finland. After the culture period, bone collagen degradation products were quantified from the culture medium as an index of bone resorption. Inhibitor compounds were added into the cell cultures after the differentiation period and their effects on the resorbing activity of mature osteoclasts were determined. The studies included a baseline group without added compounds and a positive control group where a potent cathepsin K inhibitor E-64 was added.
# Human peripheral blood monocytes were suspended to culture medium and allowed to attach to bovine bone slices. The bone slices were transferred into 96-well tissue culture plates containing culture medium with appropriate amounts of important growth factors favouring osteoclast differentiation, including M-CSF, RANK-ligand and TGF-[…]. The cells were incubated in a CO2 incubator in humidified atmosphere of 95% air and 5% carbon dioxide at 37° C. At day 7 when osteoclast differentiation was complete, the culture medium was replaced with culture medium containing conditions favouring osteoclast activity. The cell culture was continued for an additional 2 days, during which the formed mature osteoclasts were allowed to resorb bone in the presence of vehicle, control inhibitor (E64) or test compounds. At the end of the culture, bone collagen degradation products released into the culture medium were determined using a commercially available ELISA method (CrossLaps® for culture, Nordic Bioscience, Herlev, Denmark) as an index of bone resorption (see Bagger, Y. Z. et al, J. Bone. Miner. Res. 14 (suppl. 1), S370).
# LogD determinations = format: physicochemical; conditions: Ion-count method; for logD at 1 h: 1-octanol/phosphate buffered saline, pH 7.4, pH 7.4
# Method: LogD(PBS) determinations were performed in 96 well microtitre plates using a miniaturised “shake-flask” method. […] The plates were then capped and mixed vigorously for 1 hour on a microtitre plate shaker, after which they were left to stand, allowing the PBS and octanol phases to separate. The PBS layer was analysed by reverse phase HPLC with mass spectrometric detection, using single ion monitoring of the [M+H]^+ species.
# Where AUCstd and AUCpbs are the peak areas from the standard and test ion chromatograms respectively.
# cathepsin K = target: T1, cathepsin K (Homo sapiens, UniProt P43235); test: In vitro cathepsin Ki inhibition measurements; format: biochemical; set-up: purchased B. Turk, Josef Stefan Institute, Ljubljana, Slovenia; conditions: human recombinant cathepsin K; read-out: In vitro Ki (nM) vs Cath K
# T1 sequence (P43235 115-329): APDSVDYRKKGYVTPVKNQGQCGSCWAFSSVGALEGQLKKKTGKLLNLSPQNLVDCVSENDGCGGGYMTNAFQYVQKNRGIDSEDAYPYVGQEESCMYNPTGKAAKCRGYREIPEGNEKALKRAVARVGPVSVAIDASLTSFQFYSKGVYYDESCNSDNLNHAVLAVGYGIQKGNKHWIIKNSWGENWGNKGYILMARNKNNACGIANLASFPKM
# Method: Stock solutions of substrate or inhibitor were made up to 10 mM in 100% dimethylsulfoxide (DMSO) (Rathburns, Glasgow, U.K.) and diluted as appropriately required. In all cases the DMSO concentration in the assays was maintained at less than 1% (vol./vol.). The equilibrium inhibition constants (Ki^SS) for each compound were measured under steady-state conditions monitoring enzyme activity as a function of inhibitor concentration. The values were calculated on the assumption of pure competitive behaviour (Cornish-Bowden, A. Fundamentals of enzyme kinetics Portland Press; 1995, 93-128). Human recombinant cathepsin K (0.25 nM final; B. Turk, Josef, Stefan Institute, Ljubljana, Slovenia), was routinely assayed in 100 mM sodium acetate; pH 5.5 containing 1 mM EDTA, 10 mM L-cysteine and 1.8 μM Z-Leu-Arg-AMC ([S]═KM).
# The apparent inhibition constant (Ki) for each compound was determined on the basis that inhibition was reversible and occurred by a pure-competitive mechanism. The Ki values were calculated, from the dependence of enzyme activity as a function of inhibitor concentration, by direct regression analysis (Prism v 3.02) using Equation 2 (Cornish-Bowden, A., 1995).
# In situations where the apparent dissociation constant (Ki^app) approached the enzyme concentrations, the Ki^app values were calculated using a quadratic solution in the form described by Equation 3 (Morrison, J. F. Trends Biochem. Sci., 7, 102-105, 1982; Morrison, J. F. Biochim. Biophys. Acta, 185, 269-286, 1969; Stone, S. R. and Hofsteenge, J. Biochemistry, 25, 4622-4628, 1986).
# Curves were fitted by non-linear regression analysis (Prism) using a fixed value for the enzyme concentration. Equation 4 was used to account for the substrate kinetics, where ‘Ki’ is the inhibition constant, ‘[So]’ is the initial substrate concentration and ‘KM^app’ is the apparent macroscopic binding (Michaelis) constant for the substrate (Morrison, 1982).
# human osteoclasts [3] = conditions: human osteoclast, literature value; cited from earlier work
# [4] = UV method, literature value; cited from earlier work
Human Plasma Stability % rem. @ 1 h [1] [%],logD at 1 h (LogD determinations),LogD pH 7.4 (LogD determinations; pH 7.4),Ki (cathepsin K) [nM],Structure (SMILES),inhibition at 1 µM (human osteoclasts [2]) [%],Cell-based % Inh. @ 1 □ M Human (Lit.) (human osteoclasts [3]),LogD pH 7.4 (Lit.) [4]
99,> 0.8,1.12,8.2,"CCCN1CCC(c2ccc(C(=O)N[C@@H](CC(C)(C)C)C(=O)N3C[C@@H](OC)[C@H]4OCC(=O)[C@H]43)cc2)CC1 [Example 38, N—((S)-1-((3aS,6R,6aS)-6-methoxy-3-oxodihydro-2H-furo[3,2-b]pyrrol-4(5H,6H,6aH)-yl)-4,4-dimethyl-1-oxopentan-2-yl)-4-(1-propylpiperidin-4-yl)benzamide]",63 to 88,–,–
75,1.36,–,–,CC(C)C[C@H](NC(=O)c1ccc(C(C)(C)C)cc1)C(=O)N1CC[C@H]2OCC(=O)[C@H]21 [reference compound],–,Lit. 60%,–
95,0.56,–,8.7,CC(C)C[C@H](NC(=O)c1ccc(N2CCN(C)CC2)cc1)C(=O)N1CC[C@H]2OCC(=O)[C@H]21 [reference compound],–,–,0.04
